The test concerns the target human MRGPRD (Homo sapiens, UniProt Q8TDS7). Nature of the test: MRGPRD antagonist activity, IP-One HTRF assay in CHO cells stably expressing human MRGPRD (versus 100 μM β-Alanine agonist). It is filed as cell-based. As for the experimental part:
Chinese Hamster Ovary (CHO) cells stably expressing human MRGPRD (Eurofins, San Diego CA) were plated in a 384-well plate at 20,000 cells per well in 12 μL of Optimem (Fisher Scientific 11-058-021). Plates were kept in the incubator at 37° C. overnight. Antagonists were solubilized at a concentration of 10 mM in DMSO, and the agonists were solubilized to stock concentrations of either 50 mM in H2O (β-Alanine) or 10 mM in DMSO (all others) and then diluted in assay buffer (final concentrations of 5.7 mM Tris-HCl, 43 mM NaCl, 50 mM LiCl, pH=8). The concentration of DMSO was normalized across the plate. Antagonists were added to the plate using a Tecan D300 Digital Dispenser at nanoliter/picoliter volumes and 2 μL of agonists in assay buffer were added to each well for a final assay volume of 14 μL. Plates were covered and incubated for 1 h at 37° C. and then for 1 h at room temperature. IP-1 standards and HTRF detection reagents were added according to an IP-One—Gq Kit purchased from Cisbio (part number 621PAPEJ) and incubated in the dark for 1 h at room temperature. Assay plates were read on either a Molecular Devices SpectraMax iD5 plate reader or a BMG ClarioStar plate reader. The HTRF ratio was calculated form the raw data and graphed using GraphPad Prism to calculate IC50 values. Data are expressed as average IC50 values and average percent antagonism calculated as a percent of the maximum efficacy response. For these studies, the variability of the data was assessed by determining the standard error of mean (SEM).
The activity ranges are denoted as follows: “+++++” denotes antagonist activity<100 nM; “++++” denotes antagonist activity between 100 and 500 nM; “+++” denotes activity between 500 and 1000 nM; “++” denotes activity between 1000 and 3000 nM; and “+” denotes activity>3000 nM.
On the technique in general: TR-FRET usually uses a lanthanide donor and a delayed reading to cut background.

In general, IC50 refers to the concentration needed to halve the response being measured. A higher IC50 goes with weaker potency.

Chain of human MRGPRD (Q8TDS7 whole entry): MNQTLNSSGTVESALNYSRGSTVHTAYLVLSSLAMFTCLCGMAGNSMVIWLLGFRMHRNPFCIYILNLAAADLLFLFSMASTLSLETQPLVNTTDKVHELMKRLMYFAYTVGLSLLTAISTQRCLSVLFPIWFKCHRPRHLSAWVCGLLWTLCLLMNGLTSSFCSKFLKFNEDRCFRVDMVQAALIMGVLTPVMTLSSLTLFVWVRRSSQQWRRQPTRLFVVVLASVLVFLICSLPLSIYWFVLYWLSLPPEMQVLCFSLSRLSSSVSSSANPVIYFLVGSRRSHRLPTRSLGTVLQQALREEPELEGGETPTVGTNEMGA

The molecule `Cc1cc(NC(=O)c2nnn(-c3ccc(-c4ccccc4)cc3)c2C2CC2)ccc1F` [Compound 14-58] came in with a 50% inhibitory concentration (IC50) of 1000 to 3000 nM.

The molecule `Cc1ccc(CNC(=O)c2nnn(-c3cccc(-c4ccn(C5CCC5)n4)c3)c2C2CC2)cn1` [Compound 7-278] showed an IC50 of 500 to 1000 nM.

The molecule `Cc1nn(-c2ccccc2)c(C)c1-c1ccc(-n2nnc(C(=O)Nc3ccc(NS(C)(=O)=O)cc3)c2C2CC2)cc1` [Compound 9-27] displayed an IC50 of 500 to 1000 nM.

`Cc1nn(C)c(C)c1-c1ccc(-n2nnc(C(=O)Nc3ccc(NS(C)(=O)=O)cc3)c2C2CC2)cc1` [Compound 9-34] showed an IC50 of 1000 to 3000 nM.

The molecule `Cc1cscc1-c1ccc(-n2nnc(C(=O)Nc3ccncc3)c2C2CC2)cc1` [Compound 7-181] registered an IC50 of 1000 to 3000 nM.

`O=C(NC1(c2cccnc2)CC1)c1nnn(-c2cccc(-c3cnn(C4CCC4)c3)c2)c1C1CC1` [Compound 7-10]: the IC50 was over 3000 nM.

With `O=C(Nc1ccncc1)c1nnn(C2CCCC2)c1C1CC1` [Compound 6-5], the IC50 is 1000 to 3000 nM.

Turning to `CCn1nc(C)c(-c2ccc(-n3nnc(C(=O)NCc4ccc(C(C)C)nc4)c3C3CC3)cc2)c1C` [Compound 9-21], the IC50 fell in the range of 100 to 500 nM.

Regarding `O=C(Nc1ccncc1)c1nnn(-c2cccc(-c3cn[nH]c3)c2)c1C1CC1` [Compound 7-310], the IC50 was in the range of 1000 to 3000 nM.

`O=C(NC1CCSCC1)c1nnn(-c2ccc(-c3ccccc3)cc2)c1C1CC1` [Compound 14-30] showed an IC50 of 1000 to 3000 nM.

In turn, `O=C(Nc1ccncc1)c1nnn(-c2ccc(-c3cccs3)cc2)c1C1CC1` [Compound 7-152] had a half-maximal inhibitory concentration (IC50) of 500 to 1000 nM.

`O=C(Nc1c(F)cccc1F)c1nnn(-c2ccc(-c3ccccc3)cc2)c1C1CC1` [Compound 14-54] displayed a concentration for half-maximal inhibition (IC50) of 1000 to 3000 nM.

Regarding `CN(C)C(=O)c1ccc(-c2ccc(-n3nnc(C(=O)Nc4ccncc4)c3C3CC3)cc2)cc1` [Compound 7-207], the IC50 is 1000 to 3000 nM.

For `Cc1cc(NC(=O)c2nnn(-c3ccc(-c4ccc(C#N)cc4)cc3F)c2C(C)C)ccn1` [Compound 17-14], the concentration for half-maximal inhibition (IC50) fell in the range of 100 to 500 nM.

For the molecule `CCc1cccc(-n2nnc(C(=O)Nc3ccncc3)c2C2CC2)c1` [Compound 3-1, 5-cyclopropyl-1-(3-ethylphenyl)-N-(pyridin-4-yl)-1H-1,2,3-triazole-4-carboxamide], the IC50 was 500 to 1000 nM.

The molecule `Cc1nn(-c2ccccc2)c(C)c1-c1ccc(-n2nnc(C(=O)NC3(c4cccnc4)CC3)c2C2CC2)cc1` [Compound 18-11] yielded an IC50 of under 100 nM.

Molecule `NC(=O)c1ccc(-c2ccc(-n3nnc(C(=O)NC4(c5cccnc5)CC4)c3C3CC3)cc2)cc1` [Compound 18-4] registered a half-inhibitory concentration (IC50) of 1000 to 3000 nM.

Turning to `Cc1cc(NC(=O)c2nnn(C3CC=C(c4ccc(F)cc4)CC3)c2C2CC2)ccn1` (centres unmarked) [Compound 12-4], the IC50 fell in the range of 500 to 1000 nM.

`O=C(Nc1ccncc1)c1nnn(-c2ccc(-c3ccc(F)cc3)cc2)c1C1CC1` [Compound 7-65] yielded a 50% inhibitory concentration (IC50) of 100 to 500 nM.

As to `Cc1[nH]ncc1CNC(=O)c1nnn(-c2ccc(-c3ccccc3)cc2)c1C1CC1` [Compound 14-5], the IC50 was over 3000 nM.

For `Cc1cc(NC(=O)c2nnn(-c3ccc(-c4ccc(F)nc4)cc3)c2C2CC2)ccn1` [Compound 17-2], the IC50 lay within 100 to 500 nM.

Consider `O=C(Nc1ccncc1)c1nnn(-c2ccc(-c3cccc(Cl)c3)cc2)c1C1CC1` [Compound 7-101], for which the IC50 fell in the range of 100 to 500 nM.

As to `COc1ccc(C2(NC(=O)c3nnn(-c4ccc(-c5c(C)nn6ccccc56)cc4)c3C(C)C)CC2)cn1` [Compound 19-4], the IC50 lay within 100 to 500 nM.

Molecule `Cc1ccc(CNC(=O)c2nnn(-c3ccc(-c4ccc(C#N)nc4)cc3)c2C(C)C)cn1` [Compound 17-33] returned an IC50 of 1000 to 3000 nM.

`Cc1ccc(C2(NC(=O)c3nnn(-c4ccc(-c5ccc(C#N)cc5)cc4F)c3C3CC3)CC2)cn1` [Compound 7-227] came in with a half-maximal inhibitory concentration (IC50) of 100 to 500 nM.

The molecule `Cc1cc(NC(=O)c2nnn(-c3ccc(-c4ccc(C#N)nc4)cc3)c2C2CC2)ccn1` [Compound 7-38] showed a 50% inhibitory concentration (IC50) of 100 to 500 nM.

`COc1cc(-c2ccc(-n3nnc(C(=O)Nc4ccncc4)c3C3CC3)cc2)n[nH]1` [Compound 7-138] returned an IC50 of 500 to 1000 nM.

`Cc1nc(C(C)NC(=O)c2nnn(-c3ccc(-c4ccccc4)cc3)c2C2CC2)cs1` (centres unmarked) [Compound 14-13] yielded an IC50 of over 3000 nM.

With `O=C(Nc1ccnc(C(F)(F)F)c1)c1nnn(-c2ccc(-c3ccccc3)cc2)c1C1CC1` [Compound 14-52], the half-inhibitory concentration (IC50) was 1000 to 3000 nM.

For `O=C(Nc1ccncc1)c1nnn(-c2cccc(-c3ccccc3O)c2)c1C1CC1` [Compound 7-276], the IC50 was in the range of 500 to 1000 nM.

On to `Cc1ccc(-c2ccc(-n3nnc(C(=O)Nc4ccncc4)c3C3CC3)cc2)cc1` [Compound 7-44], for which the half-maximal inhibitory concentration (IC50) lay in the range of 100 to 500 nM.

`Cc1cc(NC(=O)c2nnn(C3CC=C(c4ccc(C#N)cc4)CC3)c2C2CC2)ccn1` (centres unmarked) [Compound 23-1, 1-(4′-cyano-2,3,4,5-tetrahydro-[1,1′-biphenyl]-4-yl)-5-cyclopropyl-N-(2-methylpyridin-4-yl)-1H-1,2,3-triazole-4-carboxamide] had an IC50 of 100 to 500 nM.

`Cc1cccc(-n2nnc(C(=O)Nc3ccncc3)c2C2CC2)c1` [Compound 2-14]: the concentration for half-maximal inhibition (IC50) is over 3000 nM.

Take `Cc1nn(C)c(C)c1-c1ccc(-n2nnc(C(=O)NC(C)c3cnn(C)c3)c2C2CC2)cc1` (centres unmarked) [Compound 15-4, 5-cyclopropyl-N-(1-(1-methyl-1H-pyrazol-4-yl)ethyl)-1-(4-(1,3,5-trimethyl-1H-pyrazol-4-yl)phenyl)-1H-1,2,3-triazole-4-carboxamide]: the IC50 fell in the range of 500 to 1000 nM.

On to `Cc1ccc(CNC(=O)c2nnn(-c3ccc(-c4c(C)nn5ccccc45)cc3)c2C2CC2)cn1` [Compound 17-1], for which the IC50 lay in the range of 100 to 500 nM.

Turning to `O=C(Nc1ccncc1)c1nnn(-c2ccc(-c3ccnn3CC3CC3)cc2)c1C1CC1` [Compound 7-168], the IC50 fell in the range of 1000 to 3000 nM.

Molecule `CCc1ccccc1-c1ccc(-n2nnc(C(=O)Nc3ccncc3)c2C2CC2)cc1` [Compound 7-208] showed an IC50 of 1000 to 3000 nM.

`CS(=O)(=O)Nc1cccc(NC(=O)c2nnn(-c3ccc(-c4ccccc4)cc3)c2C2CC2)c1` [Compound 14-77]: the concentration for half-maximal inhibition (IC50) was over 3000 nM.

Molecule `CC(C)c1cccc(-c2ccc(-n3nnc(C(=O)Nc4ccncc4)c3C3CC3)cc2)c1` [Compound 7-37] showed an IC50 of 100 to 500 nM.

In turn, `COc1cccc(-c2cccc(-n3nnc(C(=O)Nc4ccncc4)c3C3CC3)c2)c1` [Compound 7-292] came in with an IC50 of 1000 to 3000 nM.

`Cc1c2c(NC(=O)c3nnn(-c4ccc(-c5ccccc5)cc4)c3C3CC3)nccc2nn1C` [Compound 14-39] registered a half-maximal inhibitory concentration (IC50) of 1000 to 3000 nM.

The molecule `O=C(Nc1ccncc1)c1nnn(-c2cccc(O)c2)c1C1CC1` [Compound 4-7] gave an IC50 of 1000 to 3000 nM.

`Cc1cc(NC(=O)c2nnn(-c3ccc(-c4ccc(F)cc4)cc3)c2C2CC2)ccn1` [Compound 7-81] yielded a 50% inhibitory concentration (IC50) of 100 to 500 nM.

`Cc1cc(-c2ccccc2)ccc1-n1nnc(C(=O)Nc2ccncc2)c1C1CC1` [Compound 7-257] came in with an IC50 of 500 to 1000 nM.

As to `Cn1nc(-c2ccc(-n3nnc(C(=O)Nc4ccncc4)c3C3CC3)cc2)c2ccccc21` [Compound 7-164], the half-inhibitory concentration (IC50) was in the range of 1000 to 3000 nM.

The molecule `COc1ccc(-c2cccc(-n3nnc(C(=O)Nc4ccncc4)c3C3CC3)c2)c(F)c1` [Compound 7-247] had a half-inhibitory concentration (IC50) of 500 to 1000 nM.

Take `N#Cc1ccc(-c2cccc(-n3nnc(C(=O)Nc4ccncc4)c3C3CC3)c2)cc1` [Compound 7-264]: the IC50 lay in the range of 500 to 1000 nM.

`O=C(Nc1ccncc1)c1nnn(-c2ccccc2C(F)(F)F)c1C1CC1` [Compound 4-3] displayed an IC50 of 1000 to 3000 nM.

`O=C(Nc1ccncc1)c1nnn(-c2ccc(-c3ccc[nH]3)cc2)c1C1CC1` [Compound 7-77] yielded a half-maximal inhibitory concentration (IC50) of 100 to 500 nM.

`Cc1cc(NC(=O)c2nnn(-c3ccc(-c4c(C)nn(C)c4F)cc3F)c2C2CC2)ccn1` [Compound 7-224] registered an IC50 of under 100 nM.

In turn, `CCn1cc(-c2cccc(-n3nnc(C(=O)Nc4ccncc4)c3C3CC3)c2)cn1` [Compound 7-309] showed an IC50 of 1000 to 3000 nM.

On to `COc1cc(C)ccc1-n1nnc(C(=O)Nc2ccncc2)c1C1CC1` [Compound 5-5], for which the IC50 was in the range of 500 to 1000 nM.

For `Cc1cc(NC(=O)c2nnn(-c3ccc(-c4c(C)nn(C)c4C)cc3)c2C(C)C)ccn1` [Compound 10-10], the IC50 is under 100 nM.

`Cc1c(NC(=O)c2nnn(-c3ccc(-c4ccccc4)cc3)c2C2CC2)nn(C)c1C` [Compound 14-71] displayed a half-maximal inhibitory concentration (IC50) of over 3000 nM.

Consider `N#Cc1ccc(-c2ccc(-n3nnc(C(=O)NC4(c5cncc(Cl)c5)CC4)c3C3CC3)cc2)cc1F` [Compound 18-13], for which the concentration for half-maximal inhibition (IC50) was 100 to 500 nM.

`O=C(Nc1ccncc1)c1nnn(-c2ccc(-c3cccc(OC(F)(F)F)c3)cc2)c1C1CC1` [Compound 7-162] had a half-maximal inhibitory concentration (IC50) of 1000 to 3000 nM.

On to `Cc1c(C(C)NC(=O)c2nnn(-c3ccc(-c4ccccc4)cc3)c2C2CC2)cnn1C` (centres unmarked) [Compound 14-64], for which the half-inhibitory concentration (IC50) lay in the range of 1000 to 3000 nM.

On to `Cc1ccc(-n2nnc(C(=O)Nc3ccncc3)c2C2CC2)cc1O` [Compound 4-4], for which the half-inhibitory concentration (IC50) lay within 1000 to 3000 nM.

`Cc1nn(C)c(C)c1-c1ccc(-n2nnc(C(=O)Nc3ccncc3)c2C2CC2)cc1OC(F)(F)F` [Compound 7-335] displayed an IC50 of over 3000 nM.

Values taken from patent US20260001871A1, “TRIAZOLE DERIVATIVES AS MODULATORS OF MAS-RELATED G-PROTEIN RECEPTOR D” (ESCIENT PHARMACEUTICALS, INC., priority 2022, published 2026).
